Measured values: ChEMBL document CHEMBL4507273 (2021)

Key:
[1] = system: Receptor-type tyrosine-protein kinase FLT3 (Homo sapiens), P36888 [R834Q]; conditions: Compound concentration 1000.0 nM
[2] = target: Ephrin type-B receptor 3 (Homo sapiens) (UniProt P54753); conditions: Compound concentration 1000.0 nM
[3] = system: Epidermal growth factor receptor (Homo sapiens), P00533 [L858R,T790M]; conditions: Compound concentration 1000.0 nM
[4] = target: Tyrosine-protein kinase receptor Tie-1 (Homo sapiens) (UniProt P35590); conditions: Compound concentration 1000.0 nM
[5] = target: Inhibitor of nuclear factor kappa-B kinase subunit epsilon (Homo sapiens) (UniProt Q14164); conditions: Compound concentration 1000.0 nM
[6] = target: Mitogen-activated protein kinase 9 (Homo sapiens) (UniProt P45984); conditions: Compound concentration 1000.0 nM
[7] = target: 5-hydroxytryptamine receptor 1D (Homo sapiens, UniProt P28221); assay: GPCRScan assay: inhibition of 5-HT1D; design: radioligand conc. used [nm] 1.0 – 2.0, parental cells HEKT
Chain of 5-hydroxytryptamine receptor 1D (P28221 whole entry): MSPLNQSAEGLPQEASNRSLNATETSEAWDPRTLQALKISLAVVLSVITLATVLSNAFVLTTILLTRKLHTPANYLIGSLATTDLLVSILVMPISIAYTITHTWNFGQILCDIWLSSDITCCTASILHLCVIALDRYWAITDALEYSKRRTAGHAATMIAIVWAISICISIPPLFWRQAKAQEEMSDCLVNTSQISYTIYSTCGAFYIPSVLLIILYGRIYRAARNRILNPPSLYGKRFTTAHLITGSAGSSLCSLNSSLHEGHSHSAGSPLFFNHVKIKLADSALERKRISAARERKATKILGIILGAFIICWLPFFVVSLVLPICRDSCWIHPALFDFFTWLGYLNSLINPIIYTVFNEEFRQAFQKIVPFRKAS

[8] = target: Tyrosine-protein kinase TXK (Homo sapiens) (UniProt P42681); conditions: Compound concentration 1000.0 nM
[9] = target: Tyrosine-protein kinase Fgr (Homo sapiens) (UniProt P09769); conditions: Compound concentration 1000.0 nM
Chain of Tyrosine-protein kinase Fgr (Homo sapiens) (P09769 2-529 limits assumed): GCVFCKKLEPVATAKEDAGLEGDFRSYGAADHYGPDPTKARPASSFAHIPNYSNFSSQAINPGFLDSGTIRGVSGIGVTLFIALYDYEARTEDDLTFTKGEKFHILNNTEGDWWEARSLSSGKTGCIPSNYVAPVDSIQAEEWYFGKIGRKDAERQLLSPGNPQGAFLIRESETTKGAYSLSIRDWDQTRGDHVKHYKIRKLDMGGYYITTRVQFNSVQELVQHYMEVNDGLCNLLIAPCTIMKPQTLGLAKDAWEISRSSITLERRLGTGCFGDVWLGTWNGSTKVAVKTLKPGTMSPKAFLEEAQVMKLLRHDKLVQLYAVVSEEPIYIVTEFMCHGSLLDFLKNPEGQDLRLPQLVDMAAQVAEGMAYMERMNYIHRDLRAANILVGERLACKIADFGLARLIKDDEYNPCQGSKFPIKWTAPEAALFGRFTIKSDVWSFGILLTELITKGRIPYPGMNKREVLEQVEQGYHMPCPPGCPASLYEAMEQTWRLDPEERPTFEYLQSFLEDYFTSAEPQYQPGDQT

[10] = target: Leucine-rich repeat serine/threonine-protein kinase 2 (Homo sapiens) (UniProt Q5S007); conditions: Compound concentration 1000.0 nM
[11] = target: Ephrin type-B receptor 4 (Homo sapiens) (UniProt P54760); conditions: Compound concentration 1000.0 nM
[12] = target: Mitogen-activated protein kinase 10 (Homo sapiens) (UniProt P53779); conditions: Compound concentration 1000.0 nM
Chain of Mitogen-activated protein kinase 10 (Homo sapiens) (P53779 whole entry): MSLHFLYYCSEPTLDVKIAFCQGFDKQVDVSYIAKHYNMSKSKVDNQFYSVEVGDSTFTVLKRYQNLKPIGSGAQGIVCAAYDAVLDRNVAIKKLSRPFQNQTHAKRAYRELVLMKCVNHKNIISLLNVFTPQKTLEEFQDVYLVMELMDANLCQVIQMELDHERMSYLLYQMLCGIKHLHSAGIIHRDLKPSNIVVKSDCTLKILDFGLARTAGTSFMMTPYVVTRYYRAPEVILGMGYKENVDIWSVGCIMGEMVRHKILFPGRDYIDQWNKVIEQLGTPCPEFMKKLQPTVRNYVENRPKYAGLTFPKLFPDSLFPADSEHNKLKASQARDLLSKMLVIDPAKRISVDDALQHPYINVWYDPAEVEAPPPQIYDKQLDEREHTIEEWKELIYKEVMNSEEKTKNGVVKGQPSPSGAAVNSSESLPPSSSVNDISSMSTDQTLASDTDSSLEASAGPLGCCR

[13] = target: Dual specificity protein kinase CLK4 (Homo sapiens) (UniProt Q9HAZ1); conditions: Compound concentration 1000.0 nM
[14] = target: Myosin-IIIa (Homo sapiens) (UniProt Q8NEV4); conditions: Compound concentration 1000.0 nM
[15] = target: 5-hydroxytryptamine receptor 7 (Homo sapiens, UniProt P34969); conditions: Compound concentration 10.0 uM
[16] = target: ALK tyrosine kinase receptor (Homo sapiens) (UniProt Q9UM73); conditions: Compound concentration 1000.0 nM
[17] = target: Mitogen-activated protein kinase kinase kinase 3 (Homo sapiens) (UniProt Q99759); conditions: Compound concentration 1000.0 nM
Chain of Mitogen-activated protein kinase kinase kinase 3 (Homo sapiens) (Q99759 whole entry): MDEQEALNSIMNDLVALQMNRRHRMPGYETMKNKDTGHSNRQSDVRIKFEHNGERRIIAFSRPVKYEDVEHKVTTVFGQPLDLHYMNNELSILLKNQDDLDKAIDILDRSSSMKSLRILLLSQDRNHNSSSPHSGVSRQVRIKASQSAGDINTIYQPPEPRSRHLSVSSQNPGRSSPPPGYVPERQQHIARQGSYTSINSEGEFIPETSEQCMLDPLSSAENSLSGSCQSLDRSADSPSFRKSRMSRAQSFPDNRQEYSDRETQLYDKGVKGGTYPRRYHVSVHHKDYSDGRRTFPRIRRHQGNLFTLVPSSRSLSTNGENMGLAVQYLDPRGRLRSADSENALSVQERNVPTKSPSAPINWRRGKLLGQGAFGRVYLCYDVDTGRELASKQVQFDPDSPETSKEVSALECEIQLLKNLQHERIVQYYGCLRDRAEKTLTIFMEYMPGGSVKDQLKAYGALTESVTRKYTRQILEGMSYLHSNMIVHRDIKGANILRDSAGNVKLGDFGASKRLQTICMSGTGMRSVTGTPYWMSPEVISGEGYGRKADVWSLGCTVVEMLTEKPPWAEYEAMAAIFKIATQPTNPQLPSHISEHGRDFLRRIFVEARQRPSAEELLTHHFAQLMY

[18] = target: Serine/threonine-protein kinase PLK1 (Homo sapiens) (UniProt P53350); conditions: Compound concentration 1000.0 nM
Chain of Serine/threonine-protein kinase PLK1 (Homo sapiens) (P53350 whole entry): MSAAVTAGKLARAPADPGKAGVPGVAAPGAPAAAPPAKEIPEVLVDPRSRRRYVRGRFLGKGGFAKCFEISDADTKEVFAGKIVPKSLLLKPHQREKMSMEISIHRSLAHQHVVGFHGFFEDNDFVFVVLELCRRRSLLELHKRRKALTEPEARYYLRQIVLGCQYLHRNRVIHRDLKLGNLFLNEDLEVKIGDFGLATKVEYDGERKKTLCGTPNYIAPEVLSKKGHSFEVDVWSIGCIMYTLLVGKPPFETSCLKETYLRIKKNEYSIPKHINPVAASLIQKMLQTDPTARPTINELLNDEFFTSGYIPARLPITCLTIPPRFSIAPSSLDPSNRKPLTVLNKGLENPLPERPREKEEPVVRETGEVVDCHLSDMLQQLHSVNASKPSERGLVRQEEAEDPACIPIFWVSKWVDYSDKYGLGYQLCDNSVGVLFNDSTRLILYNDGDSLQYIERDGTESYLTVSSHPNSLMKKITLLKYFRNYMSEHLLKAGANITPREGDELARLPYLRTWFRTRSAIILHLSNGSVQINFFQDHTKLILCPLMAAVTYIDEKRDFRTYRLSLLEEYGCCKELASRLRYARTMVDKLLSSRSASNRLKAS

[19] = system: Proto-oncogene tyrosine-protein kinase receptor Ret (Homo sapiens), P07949 [M918T]; conditions: Compound concentration 1000.0 nM
[20] = target: Rhodopsin kinase GRK7 (Homo sapiens) (UniProt Q8WTQ7); conditions: Compound concentration 1000.0 nM
Chain of Rhodopsin kinase GRK7 (Homo sapiens) (Q8WTQ7 whole entry): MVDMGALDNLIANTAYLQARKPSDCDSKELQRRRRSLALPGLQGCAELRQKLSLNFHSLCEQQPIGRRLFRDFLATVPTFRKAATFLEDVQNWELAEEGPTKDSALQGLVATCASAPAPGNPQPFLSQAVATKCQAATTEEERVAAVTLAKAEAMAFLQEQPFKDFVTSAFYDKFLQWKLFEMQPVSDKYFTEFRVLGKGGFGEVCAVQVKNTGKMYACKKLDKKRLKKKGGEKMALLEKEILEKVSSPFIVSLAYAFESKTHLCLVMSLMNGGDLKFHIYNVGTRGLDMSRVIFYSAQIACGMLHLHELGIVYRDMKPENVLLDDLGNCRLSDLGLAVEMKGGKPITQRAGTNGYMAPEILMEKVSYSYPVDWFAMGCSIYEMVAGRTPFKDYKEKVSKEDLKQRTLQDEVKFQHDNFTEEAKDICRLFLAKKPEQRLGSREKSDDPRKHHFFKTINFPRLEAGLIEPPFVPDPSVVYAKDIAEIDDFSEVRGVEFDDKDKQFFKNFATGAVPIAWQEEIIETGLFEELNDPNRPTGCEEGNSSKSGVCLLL

[21] = target: Serine/threonine-protein kinase 24 (Homo sapiens) (UniProt Q9Y6E0); conditions: Compound concentration 1000.0 nM
[22] = target: 5-hydroxytryptamine receptor 2B (Homo sapiens, UniProt P41595); conditions: Compound concentration 10.0 uM
Chain of 5-hydroxytryptamine receptor 2B (P41595 whole entry): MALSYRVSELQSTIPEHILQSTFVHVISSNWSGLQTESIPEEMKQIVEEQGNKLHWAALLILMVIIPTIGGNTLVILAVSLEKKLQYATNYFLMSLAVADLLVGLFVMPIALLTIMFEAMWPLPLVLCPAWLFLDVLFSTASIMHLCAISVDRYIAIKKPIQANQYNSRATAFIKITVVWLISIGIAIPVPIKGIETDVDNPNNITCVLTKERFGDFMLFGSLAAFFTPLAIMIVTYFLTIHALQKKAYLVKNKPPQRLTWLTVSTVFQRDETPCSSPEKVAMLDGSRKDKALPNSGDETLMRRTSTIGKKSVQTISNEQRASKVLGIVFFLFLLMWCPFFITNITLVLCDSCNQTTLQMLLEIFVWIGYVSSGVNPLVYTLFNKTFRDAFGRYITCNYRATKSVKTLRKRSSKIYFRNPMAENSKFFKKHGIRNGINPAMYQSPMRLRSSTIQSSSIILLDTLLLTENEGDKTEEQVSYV

[23] = target: Angiopoietin-1 receptor (Homo sapiens) (UniProt Q02763); conditions: Compound concentration 1000.0 nM
[24] = target: Mitogen-activated protein kinase kinase kinase 2 (Homo sapiens) (UniProt Q9Y2U5); conditions: Compound concentration 1000.0 nM
[25] = system: Tyrosine-protein kinase ABL1 (Homo sapiens), P00519 [E255K]; conditions: Compound concentration 1000.0 nM
[26] = system: eIF-2-alpha kinase GCN2 (Homo sapiens), Q9P2K8 [S808G]; conditions: Compound concentration 1000.0 nM
[27] = target: Receptor-type tyrosine-protein kinase FLT3 (Homo sapiens) (UniProt P36888); conditions: Compound concentration 1000.0 nM
[28] = target: Serine/threonine-protein kinase 36 (Homo sapiens) (UniProt Q9NRP7); conditions: Compound concentration 1000.0 nM
[29] = system: Tyrosine-protein kinase ABL1 (Homo sapiens), P00519 [F317I]; conditions: Compound concentration 1000.0 nM
[30] = target: T1, 5-hydroxytryptamine receptor 2C (Homo sapiens) (UniProt P28335); conditions: Compound concentration 10.0 uM
T1 sequence (whole entry): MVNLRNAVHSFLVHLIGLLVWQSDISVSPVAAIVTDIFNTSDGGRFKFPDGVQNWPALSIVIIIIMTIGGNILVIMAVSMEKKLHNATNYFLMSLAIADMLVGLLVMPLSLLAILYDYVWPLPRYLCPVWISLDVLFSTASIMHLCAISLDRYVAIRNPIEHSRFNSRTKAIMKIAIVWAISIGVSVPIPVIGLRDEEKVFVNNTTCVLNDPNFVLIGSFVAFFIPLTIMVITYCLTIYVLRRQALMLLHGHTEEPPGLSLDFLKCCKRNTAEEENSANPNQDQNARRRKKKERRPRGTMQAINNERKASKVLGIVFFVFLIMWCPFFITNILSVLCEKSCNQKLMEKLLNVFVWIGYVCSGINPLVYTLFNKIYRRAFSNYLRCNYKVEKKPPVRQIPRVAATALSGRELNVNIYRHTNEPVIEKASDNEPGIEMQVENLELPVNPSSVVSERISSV

[31] = target: Serine/threonine-protein kinase SIK1 (Homo sapiens) (UniProt P57059); conditions: Compound concentration 1000.0 nM
[32] = system: Tyrosine-protein kinase ABL1 (Homo sapiens), P00519 [H396P]; conditions: Compound concentration 1000.0 nM
[33] = target: Activin receptor type-2A (Homo sapiens) (UniProt P27037); conditions: Compound concentration 1000.0 nM
[34] = target: TRAF2 and NCK-interacting protein kinase (Homo sapiens) (UniProt Q9UKE5); conditions: Compound concentration 1000.0 nM
[35] = target: Receptor-interacting serine/threonine-protein kinase 2 (Homo sapiens) (UniProt O43353); conditions: Compound concentration 1000.0 nM
Chain of Receptor-interacting serine/threonine-protein kinase 2 (Homo sapiens) (O43353 whole entry): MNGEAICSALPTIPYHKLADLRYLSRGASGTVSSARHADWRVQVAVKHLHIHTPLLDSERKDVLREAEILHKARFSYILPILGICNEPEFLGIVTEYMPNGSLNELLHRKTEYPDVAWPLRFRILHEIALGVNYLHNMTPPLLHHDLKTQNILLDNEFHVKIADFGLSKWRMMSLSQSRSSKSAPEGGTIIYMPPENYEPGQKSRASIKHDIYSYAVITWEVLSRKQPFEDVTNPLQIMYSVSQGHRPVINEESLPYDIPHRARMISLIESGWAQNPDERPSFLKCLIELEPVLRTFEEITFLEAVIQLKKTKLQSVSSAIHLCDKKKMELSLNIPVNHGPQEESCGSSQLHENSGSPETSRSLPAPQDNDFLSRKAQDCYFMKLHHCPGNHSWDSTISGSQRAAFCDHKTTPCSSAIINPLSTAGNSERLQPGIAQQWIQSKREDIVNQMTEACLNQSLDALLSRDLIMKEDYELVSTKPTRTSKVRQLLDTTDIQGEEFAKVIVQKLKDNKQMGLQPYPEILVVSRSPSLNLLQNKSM

[36] = target: Calcium/calmodulin-dependent protein kinase type II subunit beta (Homo sapiens) (UniProt Q13554); conditions: Compound concentration 1000.0 nM
[37] = target: NUAK family SNF1-like kinase 1 (Homo sapiens) (UniProt O60285); conditions: Compound concentration 1000.0 nM
[38] = system: Phosphatidylinositol 4,5-bisphosphate 3-kinase catalytic subunit alpha isoform (Homo sapiens), P42336 [H1047L]; conditions: Compound concentration 1000.0 nM
[39] = target: Serine/threonine-protein kinase PAK 3 (Homo sapiens) (UniProt O75914); conditions: Compound concentration 1000.0 nM
Chain of Serine/threonine-protein kinase PAK 3 (Homo sapiens) (O75914 whole entry, looked up): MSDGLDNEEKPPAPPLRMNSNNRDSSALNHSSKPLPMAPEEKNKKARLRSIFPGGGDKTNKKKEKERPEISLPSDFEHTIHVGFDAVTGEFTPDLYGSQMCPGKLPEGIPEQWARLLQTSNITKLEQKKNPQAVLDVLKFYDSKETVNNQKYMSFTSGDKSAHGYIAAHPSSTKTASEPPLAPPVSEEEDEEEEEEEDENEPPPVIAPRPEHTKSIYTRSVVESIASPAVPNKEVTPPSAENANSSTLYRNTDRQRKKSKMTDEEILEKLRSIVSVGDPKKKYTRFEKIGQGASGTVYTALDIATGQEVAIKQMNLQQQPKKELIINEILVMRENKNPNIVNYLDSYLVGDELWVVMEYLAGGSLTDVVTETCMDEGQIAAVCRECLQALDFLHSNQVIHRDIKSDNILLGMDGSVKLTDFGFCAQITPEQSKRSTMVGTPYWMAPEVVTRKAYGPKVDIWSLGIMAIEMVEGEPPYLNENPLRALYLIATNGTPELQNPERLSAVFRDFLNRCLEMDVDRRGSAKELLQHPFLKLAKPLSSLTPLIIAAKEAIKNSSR

| Structure (SMILES) | residual activity [1] [%] | residual activity [2] [%] | residual activity [3] [%] | residual activity [4] [%] | residual activity [5] [%] | residual activity [6] [%] | Ki ([7]; read-out: Ki) [µM] | Ki ([7]; read-out: pKi (converted)) [µM] | residual activity [8] [%] | residual activity [9] [%] | residual activity [10] [%] | residual activity [11] [%] | residual activity [12] [%] | residual activity [13] [%] | residual activity [14] [%] | inhibition [15] [%] | residual activity [16] [%] | residual activity [17] [%] | residual activity [18] [%] | residual activity [19] [%] | further results |
| --- | --- | --- | --- | --- | --- | --- | --- | --- | --- | --- | --- | --- | --- | --- | --- | --- | --- | --- | --- | --- | --- |
| CNCc1ccccc1-c1csc([C@@H](C)Nc2nc(C)nc3cc(OC)c(OC)cc23)c1 [BAY-293] | 79 | 100 | 93 | 100 | 71 | 71 | 0.181 | 0.17 | 76 | 100 | 100 | 99 | 71 | 100 | 100 | 76.2 | 79 | 83 | 80 | 70 | residual activity [20]: 83%; residual activity [21]: 100%; inhibition [22]: 86.9%; residual activity [23]: 87%; residual activity [24]: 87%; residual activity [25]: 75%; residual activity [26]: 99%; residual activity [27]: 97%; residual activity [28]: 100%; residual activity [29]: 100%; inhibition [30]: 73.7%; residual activity [31]: 91%; residual activity [32]: 93%; residual activity [33]: 94%; residual activity [34]: 85%; residual activity [35]: 100%; residual activity [36]: 92%; residual activity [37]: 97%; residual activity [38]: 95%; residual activity [39]: 86% |
| CNCc1ccccc1-c1csc([C@H](C)Nc2nc(C)nc3cc(OC)c(OC)cc23)c1 [BAY-294] | 82 | 100 | 87 | 100 | 85 | 71 | 0.0935 | 0.0923 | 100 | 100 | 100 | 100 | 74 | 100 | 100 | 70.7 | 73 | 87 | 85 | 99 | residual activity [20]: 89%; residual activity [21]: 100%; inhibition [22]: 97.3%; residual activity [23]: 100%; residual activity [24]: 100%; residual activity [25]: 81%; residual activity [26]: 100%; residual activity [27]: 100%; residual activity [28]: 100%; residual activity [29]: 100%; inhibition [30]: 71.8%; residual activity [31]: 100%; residual activity [32]: 95%; residual activity [33]: 76%; residual activity [34]: 99%; residual activity [35]: 100%; residual activity [36]: 100%; residual activity [37]: 90%; residual activity [38]: 88%; residual activity [39]: 87% |
